# Measurements as given in patent US20250017964A1, “ENGINEERING OR INDUCING PDGF AND/OR PDGFR SIGNALING TO ENHANCE NK CELL THERAPY” (City of Hope, priority 2021, published 2025).
# Test system: NK cells
# Experiment: Annexin V and Ki67 staining of NK cells in vitro
# Type: cell-based, human
# Conditions: PDGF-D 50 ng/ml 48 h without IL-15
# Experimental: FIGS. 4A-4J. PDGFRβ promotes IL-15-mediated NK cell survival in vitro and in vivo. (A) 5×10^5 sorted PDGFRβ^+ (Pos) and PDGFRβ^− (Neg) NK cells were cultured in vitro for 7 days in the presence of IL-15 (10 ng/ml). The cells were counted via trypan blue exclusion assay on days 3, 5, and 7 (n=5). (B and C) On day 7, Ki67 levels in PDGFRβ^+ and PDGFRβ^− NK cells were determined by flow cytometry (n=5). (D and E) Annexin V levels in PDGFRβ^+ and PDGFRβ^− NK cells on day 7 were determined by flow cytometry (n=5). (H-J) 1×10^7 sorted PDGFRβ^+ or PDGFRβ^− IL-15-transduced NK cells were injected into NOD/SCID/IL-2rg (NSG) mice. Blood samples were collected for analysis at the indicated time after adoptive transfer. Data shown are representative dot plots on day 9 after adoptive transfer (H), percentages (I), and absolute numbers (J) of PDGFRβ^+ and PDGFRβ^− NK cells on days 3, 6, and 9 after adoptive transfer (n=5). Data represent three independent experiments. […]
# FIGS. 6A-6M. […] Cells were counted on days 3, 5, and 7 (n=3). […] Cells were counted on days 3, 5, and 7 (n=3). […] The cells were counted by trypan exclusion assay on days 3, 5, and 7 (n=3). […] Cells were counted by trypan exclusion assay on days 3, 5, and 7 (n=3). […] Cells were counted by trypan exclusion assay on days 3, 5, and 7 (n=3). […] Cell apoptosis and proliferation were analyzed by annexin V staining (J) and Ki-67 staining (K), respectively. […]
substance,measurement,setting,value
"PDGF-D: recombinant human PDGF-DD (1159-SB-025), R&D Systems",apoptosis of PDGFRβ^+ NK cells (annexin V),IL-15-pretreated sorted cells,inhibited apoptosis
same,NK cell proliferation (Ki67),,did not affect NK cell proliferation
